# Laboratory results reported in patent US9040532B2, “Alpha adrenergic receptor modulators” (Allergan, Inc., priority 2009, dated 2015).
# Where two headings read alike, the source gives them in different places.
# What was measured:
# Alpha 2B [1] = molecular target: Alpha 2B (Homo sapiens, UniProt P18089); experiment: FLIPR assay, intracellular Ca2+ mobilization, alpha 2B; type: cell-based
# Protocol: (§1) Cells are loaded into a plate reader with a Ca^2+ dye indicator and incubated with various compounds. This assay is adequate for monitoring the intracellular Ca^2+ mobilization from fluorescent readings to evaluate receptor agonists.
# Alpha 2B [2] = molecular target: T1, Alpha 2B (Homo sapiens, UniProt P18089); experiment: as above; type: cell-based; conditions: FLIPR; for EC50: agonist, read-out: Alpha 2B Potency (EC50); for Alpha 2B relative efficacy compared to a standard full agonist: value in parentheses
# T1 sequence (P18089 1-450): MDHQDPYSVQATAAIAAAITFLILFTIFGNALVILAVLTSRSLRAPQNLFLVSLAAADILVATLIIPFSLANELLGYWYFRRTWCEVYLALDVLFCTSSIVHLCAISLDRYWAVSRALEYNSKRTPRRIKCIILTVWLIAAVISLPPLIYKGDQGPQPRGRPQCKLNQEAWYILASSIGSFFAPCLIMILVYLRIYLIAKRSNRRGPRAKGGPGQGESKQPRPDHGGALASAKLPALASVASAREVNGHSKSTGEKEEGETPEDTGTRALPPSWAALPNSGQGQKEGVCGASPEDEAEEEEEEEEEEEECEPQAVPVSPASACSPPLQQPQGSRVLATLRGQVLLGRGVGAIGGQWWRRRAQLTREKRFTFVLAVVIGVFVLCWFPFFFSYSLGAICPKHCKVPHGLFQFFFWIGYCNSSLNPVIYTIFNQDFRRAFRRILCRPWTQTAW
# Protocol: as §1
# [3] = test system: Intraoccular Pressure (IOP); experiment: In-vivo intraocular pressure compound screening; conditions: normotensive male Dutch-Belted rabbits, single 50 μl topical drop, 0.15% or 1.0%; for IOP lowering: IOP 0.5-8 h vs 0 h baseline
# Protocol: The experimental animals used, were Normotensive male Dutch-Belted rabbits over 6 months in age (n=4/compound/dose screened). A single drop (50 μl) of the drug formulation, which yields 0.15% or 1.0% of the active metabolite was administered topically by pipette onto the right eye (treated eye) at approximately 0700 hours. Intraoccular Pressure (IOP) of the rabbits (treated and untreated eyes) was measured 0 hours before and at 0.5, 1, 2, 3, 4, 6 and 8 hours after topical eyedrop administration. IOP at the time of eyedrop administration (0 hours) was used as a baseline value. Prior to the tonometric measurements, 0.05% proparacaine (50 μl) was administered to each eye. Tonometric IOP measurements were obtained with a Mentor Pneumontonmeter. Additionally, all studies were masked. At least 1 week of wash-out time was allowed for each rabbit between dosings. All animals were examined for sedation, ocular irritation, and changes in pupil diameter throughout the course of the experiments. […] In this assay, Compound 10 lowered IOP about 35%.
# Alpha 2A = molecular target: T2, Alpha 2A (Homo sapiens, UniProt P08913); experiment: FLIPR assay, intracellular Ca2+ mobilization, alpha 2A; type: cell-based; conditions: for EC50: agonist, read-out: Alpha 2A Potency (EC50); for Alpha 2A relative efficacy compared to a standard full agonist: value in parentheses
# T2 sequence (P08913 1-465): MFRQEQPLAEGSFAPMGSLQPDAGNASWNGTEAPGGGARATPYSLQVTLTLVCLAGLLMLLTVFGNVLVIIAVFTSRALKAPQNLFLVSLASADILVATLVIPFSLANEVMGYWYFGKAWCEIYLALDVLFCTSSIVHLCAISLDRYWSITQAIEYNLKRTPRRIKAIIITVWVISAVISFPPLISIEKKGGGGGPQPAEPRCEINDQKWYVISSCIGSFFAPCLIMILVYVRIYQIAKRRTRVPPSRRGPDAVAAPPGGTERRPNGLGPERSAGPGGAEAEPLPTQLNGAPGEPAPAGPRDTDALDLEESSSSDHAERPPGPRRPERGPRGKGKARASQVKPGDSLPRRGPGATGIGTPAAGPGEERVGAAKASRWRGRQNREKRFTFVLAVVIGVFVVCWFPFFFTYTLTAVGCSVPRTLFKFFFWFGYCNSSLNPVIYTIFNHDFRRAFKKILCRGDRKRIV
# Protocol: The compounds described herein were tested for alpha adrenergic activity using a Fluorometric Imaging plate Reader (FLIPR) assay (Princen et al., 2003, Cytometry Part A. 51, pp. 35-45). Cells are loaded into a plate reader with a Ca^2+ dye indicator and incubated with various compounds. This assay is adequate for monitoring the intracellular Ca^2+ mobilization from fluorescent readings to evaluate receptor agonists. […] The compounds described herein activate alpha adrenergic receptors.
# Alpha 2C = molecular target: T3, Alpha 2C (Homo sapiens, UniProt P18825); experiment: FLIPR assay, intracellular Ca2+ mobilization, alpha 2C; type: cell-based; conditions: for EC50: agonist, read-out: Alpha 2C Potency (EC50); for Alpha 2C relative efficacy compared to a standard full agonist: value in parentheses
# T3 sequence (P18825 1-462): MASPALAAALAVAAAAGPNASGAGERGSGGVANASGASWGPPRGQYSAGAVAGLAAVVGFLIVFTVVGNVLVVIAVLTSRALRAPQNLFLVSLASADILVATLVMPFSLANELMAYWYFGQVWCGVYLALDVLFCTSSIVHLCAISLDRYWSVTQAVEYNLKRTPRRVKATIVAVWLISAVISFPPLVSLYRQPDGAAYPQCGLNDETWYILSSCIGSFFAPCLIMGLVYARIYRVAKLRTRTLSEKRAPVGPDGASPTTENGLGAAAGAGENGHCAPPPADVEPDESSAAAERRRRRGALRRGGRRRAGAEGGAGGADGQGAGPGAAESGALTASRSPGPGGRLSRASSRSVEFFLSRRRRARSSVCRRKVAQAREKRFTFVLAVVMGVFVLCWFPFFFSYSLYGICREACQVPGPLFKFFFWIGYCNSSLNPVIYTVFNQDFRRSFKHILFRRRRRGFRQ
# Protocol: as §1
Structure (SMILES),EC50 (Alpha 2B [1]) [nM],EC50 (Alpha 2B [2]) [nM],Alpha 2B relative efficacy compared to a standard full agonist (Alpha 2B [2]),EC50 (Alpha 2A) [nM],Alpha 2A relative efficacy compared to a standard full agonist (Alpha 2A),EC50 (Alpha 2C) [nM],Alpha 2C relative efficacy compared to a standard full agonist (Alpha 2C),IOP lowering [3],IOP lowered ([3]; vs 0 h baseline)
c1cc2c(cc1NC1=NCCC1)CCCC2,293,,,,,,,,
"Clc1c(NC2=NCCC2)ccc2cccnc12 [Compound 9, 8-Chloro-N-(3,4-dihydro-2H-pyrrol-5-yl)quinolin-7-amine]",,1050,(0.38),429,(1),218,(0.97),show potential in lowering IOP,
"Clc1c(NC2=NCCC2)ccc2[nH]cnc12 [Compound 11, 4-Chloro-N-(3,4-dihydro-2H-pyrrol-5-yl)-1H-benzimidazol-5-amine]",,513,(0.69),216,(0.98),35,(1),show potential in lowering IOP,
"Cc1c(NC2=NCCC2)ccc2[nH]cnc12 [Compound 12, N-(3,4-dihydro-2H-pyrrol-5-yl)-4-methyl-1H-benzimidazol-5-amine]",,510,(0.86),203,(1),58,(1),show potential in lowering IOP,
"Cc1c(NC2=NCCC2)ccc2nccnc12 [Compound 27, N-(3,4-Dihydro-2H-pyrrol-5-yl)-5-methylquinoxalin-6-amine]",,,,121,(0.89),16,(0.9),show potential in lowering IOP,
"Cc1c(NC2=NCCC2)ccc2c1NCCO2 [Compound 36, N-(3,4-Dihydro-2H-pyrrol-5-yl)-5-methyl-3,4-dihydro-2H-1,4-benzoxazin-6-amine]",,579,(0.77),583,(0.68),327,(0.87),,
"Cc1cccc2c1CC[C@@H]2NC1=NCCC1 [Compound 37, N-[(1S)-4-Methyl-2,3-dihydro-1H-inden-1-yl]-3,4-dihydro-2H-pyrrol-5-amine]",,21,(0.9),272,(0.43),58,(0.94),,

# Further molecules by falling EC50 (Alpha 2A), results first:
EC50 (Alpha 2B [1]) [nM],EC50 (Alpha 2B [2]) [nM],Alpha 2B relative efficacy compared to a standard full agonist (Alpha 2B [2]),EC50 (Alpha 2A) [nM],Alpha 2A relative efficacy compared to a standard full agonist (Alpha 2A),EC50 (Alpha 2C) [nM],Alpha 2C relative efficacy compared to a standard full agonist (Alpha 2C),Structure (SMILES),IOP lowering [3],IOP lowered ([3]; vs 0 h baseline)
,17,(0.96),118,(0.85),6,(0.97),"c1cc2cc(/N=C3\CCCN3)cnc2[nH]1 [Compound 26, N-[(2E)-Pyrrolidin-2-ylidene]-1H-pyrrolo[2,3-b]pyridin-5-amine]",,
,152,(0.42),115,(0.7),< 10,(0.99),"c1cc(NC2=NCCC2)c2cc[nH]c2c1 [Compound 25, N-(3,4-Dihydro-2H-pyrrol-5-yl)-1H-indol-4-amine]",,
,117,(.76),96,(.98),25,(.92),"Brc1c(NC2=NCCC2)ccc2scnc12 [Compound 31, 4-Bromo-N-(3,4-dihydro-2H-pyrrol-5-yl)-1,3-benzothiazol-5-amine]",,
,80,(0.2),6,(0.98),< 1,(1),"Cc1c(NC2=NCCC2)ccc2cccnc12 [Compound 29, N-(3,4-Dihydro-2H-pyrrol-5-yl)-8-methylquinolin-7-amine]",show potential in lowering IOP,
,90,(0.76),3,(1),1.5,(0.94),"Brc1c(NC2=NCCC2)ccc2[nH]cnc12 [Compound 10, 4-Bromo-N-(3,4-dihydro-2H-pyrrol-5-yl)-1H-benzimidazol-5-amine]",show potential in lowering IOP,about 35%
